pIC50: −log10 of the molar value. Read-outs that look alike come from different tables or passages of the source.
Molecular target: T1, Nav1.7 (or SCN9A) channel; HEK cells stably transfected with hSCN9A (Homo sapiens, UniProt Q15858)
T1 construct: expressed in transfected cells
Assay: Nav1.7 block, PatchXpress 7000 automated whole-cell voltage clamp, estimated IC50 (EIC50)
Assay type: cell-based

[1] = estimated IC50, hSCN9A HEK cells, PatchXpress platform, Examples 283-814

T1 sequence (Q15858 whole entry): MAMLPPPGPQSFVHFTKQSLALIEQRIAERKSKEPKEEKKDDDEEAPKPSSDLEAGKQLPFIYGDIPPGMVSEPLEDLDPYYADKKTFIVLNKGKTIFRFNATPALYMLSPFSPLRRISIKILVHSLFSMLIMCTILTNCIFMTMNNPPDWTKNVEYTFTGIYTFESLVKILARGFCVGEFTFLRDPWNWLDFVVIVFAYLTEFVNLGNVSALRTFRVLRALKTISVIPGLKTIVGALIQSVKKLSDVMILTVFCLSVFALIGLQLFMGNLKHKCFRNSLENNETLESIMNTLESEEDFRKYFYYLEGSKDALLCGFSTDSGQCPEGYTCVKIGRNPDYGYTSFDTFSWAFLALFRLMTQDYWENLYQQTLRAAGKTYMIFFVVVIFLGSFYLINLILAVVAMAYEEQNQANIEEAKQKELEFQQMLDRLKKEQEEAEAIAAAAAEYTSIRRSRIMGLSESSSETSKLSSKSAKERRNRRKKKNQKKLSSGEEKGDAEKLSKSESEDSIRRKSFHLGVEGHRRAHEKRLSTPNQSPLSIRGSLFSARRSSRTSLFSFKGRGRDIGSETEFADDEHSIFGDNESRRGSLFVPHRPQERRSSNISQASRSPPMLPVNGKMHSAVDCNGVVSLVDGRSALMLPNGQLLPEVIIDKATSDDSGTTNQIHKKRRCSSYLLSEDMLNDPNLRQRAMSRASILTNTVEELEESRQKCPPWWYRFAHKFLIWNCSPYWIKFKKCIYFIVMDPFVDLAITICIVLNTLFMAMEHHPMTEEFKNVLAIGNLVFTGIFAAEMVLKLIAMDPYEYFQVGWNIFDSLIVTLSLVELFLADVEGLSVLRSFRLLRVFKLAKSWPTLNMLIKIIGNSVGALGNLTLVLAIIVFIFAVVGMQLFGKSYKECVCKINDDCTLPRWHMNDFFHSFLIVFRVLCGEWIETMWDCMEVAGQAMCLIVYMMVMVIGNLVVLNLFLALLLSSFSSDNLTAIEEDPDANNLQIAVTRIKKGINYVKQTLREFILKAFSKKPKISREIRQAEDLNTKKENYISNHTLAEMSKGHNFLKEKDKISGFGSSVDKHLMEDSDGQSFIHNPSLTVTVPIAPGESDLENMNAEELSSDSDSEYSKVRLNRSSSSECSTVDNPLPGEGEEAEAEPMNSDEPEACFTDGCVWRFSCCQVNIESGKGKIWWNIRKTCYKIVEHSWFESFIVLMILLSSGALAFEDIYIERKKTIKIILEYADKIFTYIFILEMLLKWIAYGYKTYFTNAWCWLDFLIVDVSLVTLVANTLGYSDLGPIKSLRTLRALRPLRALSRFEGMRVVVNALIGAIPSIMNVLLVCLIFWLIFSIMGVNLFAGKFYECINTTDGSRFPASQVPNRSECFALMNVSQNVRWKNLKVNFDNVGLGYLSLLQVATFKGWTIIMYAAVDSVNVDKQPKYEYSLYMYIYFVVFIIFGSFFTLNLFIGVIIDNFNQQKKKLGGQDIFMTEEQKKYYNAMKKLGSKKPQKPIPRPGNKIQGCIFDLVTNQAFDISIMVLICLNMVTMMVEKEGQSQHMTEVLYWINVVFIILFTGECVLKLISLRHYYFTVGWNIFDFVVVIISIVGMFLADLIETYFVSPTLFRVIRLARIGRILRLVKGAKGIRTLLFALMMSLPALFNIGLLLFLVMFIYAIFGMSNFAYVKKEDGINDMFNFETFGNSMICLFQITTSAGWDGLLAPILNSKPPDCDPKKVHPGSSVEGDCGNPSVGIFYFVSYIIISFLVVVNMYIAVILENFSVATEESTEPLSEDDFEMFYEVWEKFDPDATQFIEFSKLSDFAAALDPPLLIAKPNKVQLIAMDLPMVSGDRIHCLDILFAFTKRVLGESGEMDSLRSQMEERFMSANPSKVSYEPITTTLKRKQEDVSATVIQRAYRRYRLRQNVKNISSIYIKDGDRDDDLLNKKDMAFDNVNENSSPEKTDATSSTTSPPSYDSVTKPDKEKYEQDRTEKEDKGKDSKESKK

| pIC50 [1] | IC50 [1] [nM] | SMILES | pIC50 |
| --- | --- | --- | --- |
| 8.62 | – | O=S(=O)(Nc1ncns1)c1cc(Cl)c(Oc2ccc(F)cc2-c2cn[nH]c2)cc1F [Example 755, 5-chloro-2-fluoro-4-[4-fluoro-2-(1H-pyrazol-4-yl)phenoxy]-N-1,2,4-thiadiazol-5-ylbenzenesulfonamide] | – |
| 7.96 | – | O=S(=O)(Nc1ncns1)c1cc(F)c(Oc2ccc(F)cc2-c2cn[nH]c2)cc1F [Example 756, 2,5-difluoro-4-[4-fluoro-2-(1H-pyrazol-4-yl)phenoxy]-N-1,2,4-thiadiazol-5-ylbenzenesulfonamide] | – |
| 9.05 | – | O=S(=O)(Nc1ncns1)c1cc(F)c(Oc2cc(F)c(Cl)cc2-c2cn[nH]c2)cc1F [Example 757, 4-[4-chloro-5-fluoro-2-(1H-pyrazol-4-yl)phenoxy]-2,5-difluoro-N-1,2,4-thiadiazol-5-ylbenzenesulfonamide] | – |
| – | 210 | CCn1nc(C(F)(F)F)cc1-c1ccc(Oc2ncc(S(=O)(=O)Nc3nccs3)cc2Cl)cc1 [Example 758, 5-chloro-6-{4-[1-ethyl-3-(trifluoromethyl)-1H-pyrazol-5-yl]phenoxy}-N-1,3-thiazol-2-ylpyridine-3-sulfonamide] | – |
| – | 250 | Cn1nccc1-c1cc(Cl)ccc1Oc1ncc(S(=O)(=O)Nc2nccs2)cc1Cl [Example 759, 5-chloro-6-[4-chloro-2-(1-methyl-1H-pyrazol-5-yl)phenoxy]-N-1,3-thiazol-2-ylpyridine-3-sulfonamide] | – |
| 7.06 | – | N#Cc1cc(S(=O)(=O)Nc2cscn2)ccc1Oc1ccc(Cl)cc1-c1ccnn1C1CCNCC1 [Example 760, 4-[4-chloro-2-(1-piperidin-4-yl-1H-pyrazol-5-yl)phenoxy]-3-cyano-N-1,3-thiazol-4-ylbenzenesulfonamide] | – |
| 5.27 | – | N#Cc1cc(S(=O)(=O)Nc2cscn2)ccc1Oc1ccc(Cl)cc1-c1ccn(C2CCNCC2)n1 [Example 761, 4-[4-chloro-2-(1-piperidin-4-yl-1H-pyrazol-3-yl)phenoxy]-3-cyano-N-1,3-thiazol-4-ylbenzenesulfonamide] | – |
| 8.38 | – | O=S(=O)(Nc1ncns1)c1cc(F)c(Oc2cc(F)c(Cl)cc2-c2ccn[nH]2)cc1F [Example 762, 4-[4-chloro-5-fluoro-2-(1H-pyrazol-5-yl)phenoxy]-2,5-difluoro-N-1,2,4-thiadiazol-5-ylbenzenesulfonamide] | – |
| 7.47 | – | N#Cc1cc(S(=O)(=O)Nc2ncns2)ccc1Oc1cc(F)c(Cl)cc1-c1ccn[nH]1 [Example 763, 4-[4-chloro-5-fluoro-2-(1H-pyrazol-5-yl)phenoxy]-3-cyano-N-1,2,4-thiadiazol-5-ylbenzenesulfonamide] | – |
| 7.52 | – | O=S(=O)(Nc1nncs1)c1cc(Cl)c(Oc2ccc(C(F)(F)F)cc2-c2cn[nH]c2)cc1F [Example 764, 5-chloro-2-fluoro-4-[2-(1H-pyrazol-4-yl)-4-(trifluoromethyl)phenoxy]-N-1,3,4-thiadiazol-2-ylbenzenesulfonamide] | – |
| 6.96 | – | O=S(=O)(Nc1nncs1)c1cc(Cl)c(Oc2ccc(Cl)cc2C2CCNCC2)cc1F [Example 765, 5-chloro-4-(4-chloro-2-piperidin-4-ylphenoxy)-2-fluoro-N-1,3,4-thiadiazol-2-ylbenzenesulfonamide] | – |

More lines, now with the values behind:

| SMILES | pIC50 [1] | IC50 [1] [nM] | pIC50 |
| --- | --- | --- | --- |
| CN1CC(n2nccc2-c2cc(Cl)ccc2Oc2cc(F)c(S(=O)(=O)Nc3cscn3)cc2Cl)C1 [Example 730, 5-chloro-4-{4-chloro-2-[1-(1-methylazetidin-3-yl)-1H-pyrazol-5-yl]phenoxy}-2-fluoro-N-1,3-thiazol-4-ylbenzenesulfonamide] | 8.00 | – | – |
| Nc1cc(-c2cc(Cl)ccc2Oc2cc(F)c(S(=O)(=O)Nc3ncns3)cc2Cl)ccn1 [Example 732, 4-[2-(2-aminopyridin-4-yl)-4-chlorophenoxy]-5-chloro-2-fluoro-N-1,2,4-thiadiazol-5-ylbenzenesulfonamide] | 8.46 | – | – |
| O=S(=O)(Nc1ncns1)c1cc(F)c(Oc2ccc(C(F)(F)F)cc2C2=CCNCC2)cc1F [Example 733, 2,5-difluoro-4-[2-(1,2,3,6-tetrahydropyridin-4-yl)-4-(trifluoromethyl)phenoxy]-N-1,2,4-thiadiazol-5-ylbenzenesulfonamide] | – | – | 8.00 |
| CN1CCC(c2cc(Cl)ccc2Oc2cc(F)c(S(=O)(=O)Nc3ncns3)cc2F)CC1 [Example 734, 4-[4-chloro-2-(1-methylpiperidin-4-yl)phenoxy]-2,5-difluoro-N-1,2,4-thiadiazol-5-ylbenzenesulfonamide] | 7.28 | – | – |
| Cn1nccc1-c1cc(Br)ccc1Oc1ccc(S(=O)(=O)Nc2ncns2)cc1C(N)=O [Example 735, 2-[4-bromo-2-(1-methyl-1H-pyrazol-5-yl)phenoxy]-5-[(1,2,4-thiadiazol-5-ylamino)sulfonyl]benzamide] | 6.00 | – | – |
| N#Cc1cc(S(=O)(=O)Nc2ncns2)ccc1Oc1ccc(Cl)cc1-c1ccnc(N2CCNCC2)c1 [Example 736, 4-[4-chloro-2-(2-piperazin-1-ylpyridin-4-yl)phenoxy]-3-cyano-N-1,2,4-thiadiazol-5-ylbenzenesulfonamide] | 8.57 | – | – |
| O=S(=O)(Nc1ncns1)c1ccc(Oc2ccc(Cl)cc2-c2cn[nH]c2)c(F)c1 [Example 737, 4-[4-chloro-2-(1H-pyrazol-4-yl)phenoxy]-3-fluoro-N-1,2,4-thiadiazol-5-ylbenzenesulfonamide] | 7.77 | – | – |
| O=S(=O)(Nc1ncns1)c1cc(F)c(Oc2ccc(Cl)cc2-c2cn[nH]c2)cc1F [Example 738, 4-[4-chloro-2-(1H-pyrazol-4-yl)phenoxy]-2,5-difluoro-N-1,2,4-thiadiazol-5-ylbenzenesulfonamide] | 8.85 | – | – |
| Cn1nccc1-c1cc(Cl)ccc1Oc1ncc(S(=O)(=O)Nc2nccs2)cc1C#N [Example 739, 6-[4-chloro-2-(1-methyl-1H-pyrazol-5-yl)phenoxy]-5-cyano-N-1,3-azol-2-ylpyridine-3-sulfonamide] | – | 150 | – |
| CCn1nc(C(F)(F)F)cc1-c1ccc(Oc2ncc(S(=O)(=O)Nc3nccs3)cc2C#N)cc1 [Example 740, 5-cyano-6-{4-[1-ethyl-3-(trifluoromethyl)-1H-pyrazol-5-yl]phenoxy}-N-1,3-thiazol-2-ylpyridine-3-sulfonamide] | – | 400 | – |
| N#Cc1cc(S(=O)(=O)Nc2ncns2)ccc1Oc1ccc(C(F)(F)F)cc1-c1ccn[nH]1 [Example 741, 3-cyano-4-[2-(1H-pyrazol-5-yl)-4-(trifluoromethyl)phenoxy]-N-1,2,4-thiadiazol-5-ylbenzenesulfonamide] | 8.11 | – | – |
| Nc1n[nH]cc1-c1cc(Cl)ccc1Oc1cc(F)c(S(=O)(=O)Nc2ncns2)cc1F [Example 742, 4-[2-(3-amino-1H-pyrazol-4-yl)-4-chlorophenoxy]-2,5-difluoro-N-1,2,4-thiadiazol-5-ylbenzenesulfonamide] | 8.44 | – | – |
| N#Cc1cc(S(=O)(=O)Nc2ncns2)ccc1Oc1ccc(Cl)cc1-c1ccnc(Cl)c1 [Example 743, 4-[4-chloro-2-(2-chloropyridin-4-yl)phenoxy]-3-cyano-N-1,2,4-thiadiazol-5-ylbenzenesulfonamide] | 7.92 | – | – |
| O=S(=O)(Nc1ccncn1)c1ccc(Oc2ccc(Cl)cc2C2CCNCC2)c(Cl)c1 [Example 744, 3-chloro-4-(4-chloro-2-piperidin-4-ylphenoxy)-N-pyrimidin-4-ylbenzenesulfonamide] | 6.77 | – | – |
| Cn1nccc1-c1cc(Cl)ccc1Oc1ccc(S(=O)(=O)Nc2ccc(F)cn2)cc1Cl [Example 745, 3-chloro-4-[4-chloro-2-(1-methyl-1H-pyrazol-5-yl)phenoxy]-N-(5-fluoropyridin-2-yl)benzenesulfonamide] | 6.92 | – | – |
| O=S(=O)(Nc1ccncn1)c1ccc(Oc2ccc(Cl)cc2-c2ccn[nH]2)c(Cl)c1 [Example 746, 3-chloro-4-[4-chloro-2-(1H-pyrazol-5-yl)phenoxy]-N-pyrimidin-4-ylbenzenesulfonamide] | 7.02 | – | – |
| O=S(=O)(Nc1nncs1)c1ccc(Oc2ccc(Cl)cc2-c2ccn[nH]2)c(Cl)c1 [Example 747, 3-chloro-4-[4-chloro-2-(1H-pyrazol-5-yl)phenoxy]-N-1,3,4-adiazol-2-ylbenzenesulfonamide] | 7.30 | – | – |
| O=S(=O)(Nc1nncs1)c1cc(Cl)c(Oc2ccc(Cl)cc2-c2ccnn2CCO)cc1F [Example 748, 5-chloro-4-{4-chloro-2-[1-(2-hydroxyethyl)-1H-pyrazol-5-yl]phenoxy}-2-fluoro-N-1,3,4-thiadiazol-2-ylbenzenesulfonamide] | 6.77 | – | – |
| Cc1n[nH]cc1-c1cc(Cl)ccc1Oc1ccc(S(=O)(=O)Nc2nccs2)cc1F [Example 749, 4-[4-chloro-2-(3-methyl-1H-pyrazol-4-yl)phenoxy]-3-fluoro-N-1,3-thiazol-2-ylbenzenesulfonamide] | 7.35 | – | – |
| O=S(=O)(Nc1cscn1)c1cc(F)c(Oc2ccc(OC(F)(F)F)cc2-c2cn[nH]c2)cc1F [Example 750, 2,5-difluoro-4-[2-(1H-pyrazol-4-yl)-4-(trifluoromethoxy)phenoxy]-N-1,3-thiazol-4-ylbenzenesulfonamide] | 6.68 | – | – |
| N#Cc1cc(S(=O)(=O)Nc2ncns2)ccc1Oc1cc(Cl)c(F)cc1-c1ccn[nH]1 [Example 751, 4-[5-chloro-4-fluoro-2-(1H-pyrazol-5-yl)phenoxy]-3-cyano-N-1,2,4-thiadiazol-5-ylbenzenesulfonamide] | 7.89 | – | – |
| O=S(=O)(Nc1ncns1)c1cc(F)c(Oc2cc(Cl)c(F)cc2-c2cn[nH]c2)cc1F [Example 752, 4-[5-chloro-4-fluoro-2-(1H-pyrazol-4-yl)phenoxy]-2,5-difluoro-N-1,2,4-thiadiazol-5-ylbenzenesulfonamide] | 8.68 | – | – |
| O=S(=O)(Nc1ncns1)c1cc(F)c(Oc2cc(Cl)c(F)cc2-c2ccn[nH]2)cc1F [Example 753, 4-[5-chloro-4-fluoro-2-(1H-pyrazol-5-yl)phenoxy]-2,5-difluoro-N-1,2,4-thiadiazol-5-ylbenzenesulfonamide] | 8.28 | – | – |
| N#Cc1cc(S(=O)(=O)Nc2ncns2)ccc1Oc1cc(Cl)c(F)cc1-c1cn[nH]c1 [Example 754, 4-[5-chloro-4-fluoro-2-(1H-pyrazol-4-yl)phenoxy]-3-cyano-N-1,2,4-thiadiazol-5-ylbenzenesulfonamide] | 8.28 | – | – |

— US8541588B2, “Sulfonamide derivatives” (Pfizer Limited, priority 2009, dated 2013)
